Patent US4772633A, “6-pyridyl- and 6-phenyl-3-phenyl-1-hexenes and -1-hexynes, composition containing them, and insecticidal and acaricidal method of using them” (Sumitomo Chemical Company, Limited, priority 1986, dated 1988)
Values after ≈ are worked out from the molar mass of the structure shown. Read-outs that look alike come from different tables or passages of the source.

Experiments:
Format in all cases: in vivo
[1] = test system: carmine spider mite (Tetranychus cinnabarinus); test: Test Example 8: degree of damage of kidney bean plant by carmine spider mite; design: key: -: No damage is observed.; +: Slight damage is observed.; ++: The same damage as in the untreated plot is observed; conditions: 500 ppm, sprayed 15 ml/pot plus 2 ml to soil; after 8 days; 25° C.
Procedure: The female adults of carmine spider mite (Tetranychus cinnabarinus) were put at a rate of 10 adults/leaf on the leaves of potted kidney bean (at the primordial leaf stage) which had elapsed 7 days after sowing, and placed in a constant-temperature room kept at 25° C. After 6 days, the 200-fold aqueous dilute solutions (corresponding to 500 ppm), prepared from the emulsifiable concentrates of the following present compounds and control compounds prepared according to Formulation example 2, were each sprayed at a rate of 15 ml/pot on a turn table. At the same time, the soil in the pot was treated with 2 ml of each aqueous solution. After 8 days, the degree of damage of the plant by the mite was examined.
-: No damage is observed.
+: Slight damage is observed.
++: The same damage as in the untreated plot is observed.

[2] = test system: common mosquito (Culex pipiens pallens); test: Test Example 1: mortality of larvae and inhibition of emergence of common mosquito; conditions: for Inhibitory ratio of emergence: 3.5 ppm, counted when all mosquitoes of no treatment group had emerged; for mortality at 3.5 ppm: Culex pipiens, 24 h, last instar larvae, after one day
Procedure: The emulsifiable concentrates of the following present compounds obtained according to Formulation example 2 were each diluted with water so as to obtain respective aqueous solutions containing 3.5 ppm of said compounds, respectively. One hundred ml of thus diluted aqueous solutions were poured into respective polyethylene cups of 180 ml volume, and 20 of the last instar larvae of common mosquito (Culex pipiens pallens) were liberated thereto. After one day, the dead or alive of the larvae were examined. Thereafter, the feed was added to respective cups and the number of emerged mosquitoes of the respective cups was counted when all the mosquitoes of no treatment group had […] to calculate the inhibitory ratios of the emergence. The mortality and the inhibitory ratio of the emergence are shown according to the following three criteria: mortality: A; 90% or more, […] inhibitory: A; 90% or more, ratio of emergence B; less than 90% to 80% C; less than 80%.

[3] = test system: young Japanese carp (Cyprinida carpio); test: Test Example 9: fish toxicity test; conditions: forty-eight hours, 25°±1° C., Probit method, 2880 min
Procedure: Twenty liters of each of the aqueous solutions containing the prescribed concentrations of the present compounds and comparative control one, and 10 young carp were liberated thereto. Forty-eight hours after, the dead and alive carp were examined to obtain LC50 value, (50% lethal concentration) according to Probit method. All the tests were carried out in thermostatic aquaria whose temperatures were kept at 25°±1° C.
young Japanese carp (Cyprinida carpio)
Average body length ±S.D.: 2.94±0.19 cm.
Average body weight ±S.D.: 0.65±0.13 g.

[4] = test system: brown rice planthoppers (Nilaparavata lugens); test: Test Example 7: mortality and residual effect on brown rice planthoppers on sprayed potted rice plants; conditions: Oryza sativa, 24 h
Procedure: The emulsifiable concentrates of the following compounds and control compounds obtained according to Formulation example 2 were each diluted with water one thousand times (corresponding to 100 ppm) and each of thus prepared solutions was sprayed at the rate of 20 ml/2 pots to the rice plant seedlings planted in Wagner pots having a surface area of one ten thousandth are. After air-drying, the threated plants were covered with the iron wire cages, and about 15 adults of brown rice planthoppers (Nilaparavata lugens) were liberated thereto. Further, about 15 adults thereof were also liberated thereto 4 days after the application to examine the residual effects. Twenty four hours after each liberation, the dead and alive adults were examined to calculate the mortality.

[5] = test system: resistant strain of green rice leafhopper (Nephotetix cincticecs); test: Test Example 3: LC50 against adults of a resistant strain of green rice leafhopper (rice seedling dipping); conditions: Nephotettix cincticeps, 24 h, read-out: LC50 value
Procedure: The emulsifiable concentrates of the following present compounds and control compounds obtained according to Formulation example 2 were each diluted with water to a prescribed concentration, and rice seedlings (about 12 cm in length) were dipped for 1 minute in the resulting aqueous dilute solutions. After air-drying, the seedlings were placed in test tube, and 10 adults of a resistant strain of green rice leafhopper (Nephotetix cincticecs) were liberated in the tube. After one day, the dead and alive of the adults were examined to obtain LC50 (50% lethal concentration)(two replications).

[6] = test system: tobacco cutworms (Spodoptera litura); test: Test Example 2: mortality of tobacco cutworm 4th instar larvae on treated artificial feed; conditions: 144 h, 2 ml in 13 g artificial feed, six days after, two replications
From the text: Two ml of thus diluted solutions were impregnated into the artificial feeds (13 g) for tobacco cutworms (Spodoptera litura) and thus prepared feeds were placed in polyethylene cups of 11 cm in diameter, respectively. Ten of the 4th instar larvae were liberated thereon.
Six days after, the dead and alive of the larvae were examined to calculate the mortality (two replications).

[7] = test system: houseflies (Musca domestica) of WHO strains; test: Test Example 6: LC50 against adult female houseflies of WHO strains (sucrose bait); conditions: filter paper with sucrose bait, adult females, after 48 hours, two replications
From the text: Thirty milligrams of sucrose were uniformly placed on the filter paper as bait. Thereafter, 10 adult female houseflies (Musca domestica) of WHO strains were liberated in the cup, which was then covered witha lid.

[8] = test system: brown rice planthopper (Nilaparvata lugens); test: Test Example 4: LC50 against adults of brown rice planthopper (rice seedling dipping); conditions: 24 h, rice seedlings dipped, 10 adults, after one day, two replications
From the text: After air-drying, the seedlings were placed in a test tube, and 10 adults of brown rice planthopper (Nilaparvata lugens) were liberated in the tube.

[9] = test system: rice stem borer (Chilo suppressalis); test: Test Example 5: LC50 against rice stem borer larvae (artificial feed); conditions: larvae 10 days old, two replications
From the text: Ten of the larvae of the 10 days old were liberated thereon.

[10] = read-out: Mortality (%) liberated 4 days after application
[11] = read-out: Mortality (%) liberated just after air-drying
[12] = rice seedlings dipped 1 minute, 10 adults, after one day, two replications

| SMILES | Degree of damage [1] | Inhibitory ratio of emergence [2] | mortality at 3.5 ppm [2] [%] | LC50 value (fish toxicity) [3] [ppm] | mortality at 100 ppm [4, 10] [%] | mortality at 100 ppm [4, 11] [%] | LC50 [5] [µg/mL] | mortality at 150 ppm [6] [%] | LC50 [5, 12] [µg/mL] | LC50 [7] [µg/mL] | LC50 [8] [µg/mL] | LC50 [9] [µg/mL] |
| --- | --- | --- | --- | --- | --- | --- | --- | --- | --- | --- | --- | --- |
| C#CC(C)(CCCc1cccc(Oc2ccccc2)c1)c1ccc(OCC)cc1 (stereo not shown) [(3), 3-(4-ethoxyphenyl)-3-methyl-6-(3-phenoxyphenyl)-1-hexyne] | - | A (90% or more) | > 90 | > 10 | 95 | 100 |  |  |  |  |  |  |
| C#CC(C)(CCCc1ccc(F)c(Oc2ccccc2)c1)c1ccc(OCC)cc1 (stereo not shown) [(4), 3-(4-Ethoxyphenyl)-3-methyl-6-(3-phenoxy-4-fluorophenyl)-1-hexyne] | - | A (90% or more) | > 90 | > 10 | 100 | 100 |  |  |  |  |  |  |
| C#CC(C)(CCCc1cccc(Oc2ccccc2)c1)c1ccc(C(F)(F)F)cc1 (stereo not shown) [(13), 3-(4-Trifluoromethylphenyl)-3-methyl-6-(3-phenoxyphenyl)-1-hexyne] | - | A (90% or more) | > 90 |  |  |  | 10 (≈ 24.5 µM) | 100 |  |  |  |  |
| C#CC(C)(CCCc1ccc(F)c(Oc2ccccc2)c1)c1ccc(C(F)(F)F)cc1 (stereo not shown) [(37), 3-(4-Trifluoromethylphenyl)-3-methyl-6-(3-phenoxy-4-fluorophenyl)-1-hexyne] |  | A (90% or more) | > 90 |  |  |  |  |  | 14 (≈ 32.8 µM) |  |  |  |
| CCC(C)(CCCc1cccc(Oc2ccccc2)c1)c1ccc(Cl)cc1 (stereo not shown) [(A), reference compound] | + ~ ++ |  |  |  | 44 | 71 | ~500 (≈ 1320 µM) |  |  | ~500 (≈ 1320 µM) | > 500 | 230 (≈ 607 µM) |
| CCOC(=O)CC(SP(=S)(OC)OC)C(=O)OCC (stereo not shown) [(D), Malathion, reference compound] |  |  |  |  |  |  |  |  | ~500 (≈ 1510 µM) |  |  |  |
